Laboratory results as given in article PMC8619920, “New Polyesterified Ursane Derivatives from Leaves of Maesa membranacea and Their Cytotoxic Activity” (Molecules, 2021).

Experiments:
[1] = Cytotoxicity, LDH assay, HaCaT cells; assay type: cell-based, human; conditions: human, 24 h, mean ± SD of three, read-out: Cell viability HaCaT; for viability at 24 h, 100 μg/mL: HaCaT immortalized keratinocytes; for viability at 24 h, 5 μg/mL / viability at 24 h, 10 μg/mL / viability at 24 h, 20 μg/mL / viability at 24 h, 30 μg/mL / viability at 24 h, 40 μg/mL / viability at 24 h, 50 μg/mL: HaCaT keratinocytes
Procedure: (§1) Cytotoxic activity was tested on human cancer and normal cells, grouped in three panels, namely: prostate, skin and gastrointestinal. The prostate panel consisted of prostate cancer cell lines Du145 (ATCC HTB-81) and PC3 (ATCC CRL-1435), and prostate epithelial cells PNT-2 (ECACC 95012613). Melanoma cell lines A375 (ATCC CRL-1619) and HTB140 (ATCC Hs 294T) together with skin keratinocytes HaCaT (obtained as a kind gift of prof. Marta Michalik, Department of Cell Biology, Jagiellonian University, Kraków, Poland) were included into the skin panel. The gastrointestinal panel of cells comprised colon cancer cell lines Caco-2 (ATCC HTB-37) and HT29 (ATCC HTB-38). Du145 cells were grown in Modified Eagle’s Medium with low (1.0 g/L) glucose concentration, HT29, PC3 and PNT-2 cells in Dulbecco’s Modified Eagle’s Media: F12 HAM Nutrient Mixture, Caco-2 in Modified Eagle’s Medium with NEAA (no-essential amino acids) while melanoma cells and keratinocytes were maintained in Modified Eagle’s Medium with high (4.5 g/L) glucose concentration. The culture media (all supplied by Sigma-Aldrich Co.; St. Louis, MO, USA) contained antibiotics and 10% fetal bovine serum (FBS). All cultures were maintained at 37 °C, in a humidified, 5% CO2 containing, atmosphere.
(§2) The examined triterpenes were diluted in the culture media from freshly made stock solutions in MeOH (10 mg/mL) to the working concentrations (from 0 to 100 μg/mL).
(§3) Cell viability was determined as it was described previously. Cells suspended in the nutrient medium were transferred into 96-well microtiter plates (density 1.5 × 10^4 per well), and preincubated for 24 h (37 °C, 5% CO2). Then, the culture medium was replaced with the medium containing different concentrations of 1 or 2 (1–100 μg/mL). After 24 h of incubation, viability of the cells was determined using colorimetric lactate dehydrogenase (LDH) assay, in comparison to the controls to which corresponding aliquots of MeOH diluted with culture media were added. Cells grown in the medium without the tested compounds were used as control I (negative) and the positive control (control II) was obtained by incubation of the cells in the medium containing 1% Triton X-100. LDH released from the damaged cells into the cell culture medium was quantified by measuring the absorbance at 490 nm using Synergy II Biotek (BioTek Instruments, Winooski, VT, USA) microplate reader. Cytotoxicities of the examined compounds were calculated as follows: [(absorbance of the tested sample − absorbance of control I)/(absorbance of control II − absorbance of control I)] × 100. Results were means of three independent measurements (± SD). Doxorubicin (Ebewe Pharma GmbH., Unterach, Austria) was used as a reference cytostatic drug. The IC50 values were determined by plotting the percentage viability of the cells versus concentration and the adequate calculations made using AAT Bioquest website program (https://www.aatbio.com/tools/ic50-calculator, accessed on 29 October 2021).

[2] = Cytotoxicity, LDH assay, PNT-2 cells; assay type: cell-based, human; conditions: human, 24 h, mean ± SD of three, read-out: Cell viability PNT-2; for viability at 24 h, 5 μg/mL / viability at 24 h, 20 μg/mL / viability at 24 h, 30 μg/mL / viability at 24 h, 40 μg/mL / viability at 24 h, 50 μg/mL: PNT-2 prostate epithelial cells
Procedure: as §1, §2, §3

[3] = system: PNT-2 human normal prostate epithelium cells; assay: Cytotoxicity, LDH assay, PNT-2 cells; assay type: cell-based; conditions: for IC50: Homo sapiens, PNT2, 24 h treatment, 5–100 μg/mL
Procedure: as §1, §2, §3

[4] = PNT-2 normal prostate epithelium cells

| Compound | viability at 24 h, 100 μg/mL [1] | viability at 24 h, 5 μg/mL [1] | viability at 24 h, 10 μg/mL [1] | viability at 24 h, 20 μg/mL [1] | viability at 24 h, 30 μg/mL [1] | viability at 24 h, 40 μg/mL [1] | viability at 24 h, 50 μg/mL [1] | viability at 24 h, 10 μg/mL ([2]; PNT-2 normal prostate epithelium cells, 10 μg/mL) | viability at 24 h, 100 μg/mL [2, 4] | viability at 24 h, 5 μg/mL [2] | viability at 24 h, 20 μg/mL [2] | viability at 24 h, 30 μg/mL [2] | viability at 24 h, 40 μg/mL [2] | viability at 24 h, 50 μg/mL [2] | Reduction of viability of PNT-2 cells ([3]; 100 µg/mL) | IC50 [3] |
| --- | --- | --- | --- | --- | --- | --- | --- | --- | --- | --- | --- | --- | --- | --- | --- | --- |
| CCC(C)C(=O)OC1C=C2C3C(C)C(C)(O)CC(OC(C)=O)C3(C)CCC2(C)C2(C)CC(OC(C)=O)C3C(C)(C)C(O)C(OC(C)=O)CC3(C)C12 (stereo not drawn) [Compound 1, 2α,6β,22α-triacetoxy-11α-(2-methylbutyryloxy)-urs-12-ene-3α,20β-diol] | 56.8 ± 2.2% | 96.52 ± 0.8% | 94.9 ± 1% | 88.37 ± 0.47% | 81.2 ± 1.77% | 74 ± 1.72% | 65.7 ± 1.22% | 96.77 ± 0.6% | 59 ± 2.2% | 96.61 ± 0.53% | 94.59 ± 0.9% | 91 ± 1.07% | 83 ± 1.41% | 70.7 ± 2.58% | 41% | > 100 µg/mL |
| CC(=O)OC1CC2(C)C(C(OC(C)=O)CC3(C)C2C(O)C=C2C4C(C)C(C)(O)CC(OC(C)=O)C4(C)CCC23C)C(C)(C)C1O (stereo not drawn) [Compound 2, 2α,6β,22α-triacetoxy-urs-12-ene-3α,11α,20β-triol] | 54.3 ± 1.78% | 96.84 ± 0.6% | 94.5 ± 1.55% | 90.6 ± 0.66% | 82.8 ± 1.23% | 75.7 ± 1.76% | 61.8 ± 1.55% | – | 93.56 ± 0.5% | 97.49 ± 0.79% | 96.3 ± 1.04% | 95.64 ± 0.65% | 95.37 ± 0.75% | 94.56 ± 0.32% | – | > 100 µg/mL |
